The compounds below were run against Serine/threonine-protein kinase PLK1 (Homo sapiens, UniProt P53350).
Serine/threonine-protein kinase PLK1, sequence (P53350 whole entry): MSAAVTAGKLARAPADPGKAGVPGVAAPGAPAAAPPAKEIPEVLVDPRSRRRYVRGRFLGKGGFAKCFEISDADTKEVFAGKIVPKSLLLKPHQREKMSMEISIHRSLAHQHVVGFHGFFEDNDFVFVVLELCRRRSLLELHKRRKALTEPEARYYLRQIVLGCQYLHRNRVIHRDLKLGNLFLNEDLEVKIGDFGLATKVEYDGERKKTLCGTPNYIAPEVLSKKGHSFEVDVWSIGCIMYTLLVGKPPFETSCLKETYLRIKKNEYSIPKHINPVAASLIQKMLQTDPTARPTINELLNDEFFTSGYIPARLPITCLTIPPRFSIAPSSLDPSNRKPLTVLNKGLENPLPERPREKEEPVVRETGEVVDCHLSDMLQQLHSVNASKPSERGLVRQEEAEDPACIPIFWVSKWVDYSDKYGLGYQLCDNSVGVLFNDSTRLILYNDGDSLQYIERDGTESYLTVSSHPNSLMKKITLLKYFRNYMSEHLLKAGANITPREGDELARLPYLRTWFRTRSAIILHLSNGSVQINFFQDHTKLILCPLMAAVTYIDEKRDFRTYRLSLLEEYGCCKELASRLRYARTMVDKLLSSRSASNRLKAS
Work on `CC(Nc1ncc(C#N)c(N2CCc3ccccc3C2)n1)c1ccccc1` (configuration not stated) yielded an IC50 of 750 nM.
`C#CNC(=O)/C(C#N)=c1\s/c(=C/Nc2ccc(OCCN(C)C)cc2)c(=O)n1CC` was tested, and the IC50 was 71 nM.
Compound `CC(Nc1ncc(C#N)c(OCC2CCCCO2)n1)c1ccccc1` (configuration not stated) has an IC50 of 1600 nM.
`CC(C)(C)c1ccc(Nc2nc(NCc3cccnc3)ncc2-c2nn[nH]n2)cc1` showed an IC50 of 960 nM.
Compound `CCCN(CC1CC1)c1nc(NC(C)c2ccccc2)ncc1C#N` (configuration not stated) has an IC50 of 550 nM.
`O=c1c(O)c(-c2ccc(O)c(O)c2)oc2cc(O)cc(O)c12` [QUERCETIN] showed an IC50 of 64000 nM.
`CCCN(CC1CC1)c1nc(NCc2ccc3c(c2)OCO3)ncc1C#N` was tested, and the IC50 was 1600 nM.
`c1csc(CCNc2ncc(-c3nnn[nH]3)c(Nc3ccc4c(c3)OCCO4)n2)c1` was tested, and the IC50 was 1040 nM.
`CC(=O)N(C)c1cccc(Nc2nc(NCCc3cccs3)ncc2-c2nn[nH]n2)c1` gave an IC50 of 330 nM.
In the case of `N[C@H](COc1cncc(-c2cc3ccncc3s2)c1)Cc1c[nH]c2ccccc12`, the IC50 is reported as 10000 nM.
For `CN1CCN(c2ccc(C(=O)Nc3[nH]nc4c3CN(C(=O)Cc3cccs3)C4)cc2)CC1`, the IC50 was 530 nM.
`CCOC(=O)/C(C#N)=c1\s/c(=C/Nc2ccccc2F)c(=O)n1CC` was tested, and the IC50 was 160 nM.
With `CCOC(=O)/C(C#N)=c1\s/c(=C/Nc2ccc(NC(=O)COC)cc2)c(=O)n1CC` the IC50 was 500 nM.
In the case of `C=CCOC(=O)/C(C#N)=C1\S[C@@H](CNc2ccc(NC(=O)NCCN3CCCC3)cc2)C(=O)N1CC`, the IC50 is reported as 23 nM.
Work on `FC(F)(F)c1ccc(Nc2nc(NCc3cccnc3)ncc2-c2nn[nH]n2)cc1` yielded an IC50 of 490 nM.
`CCn1c(=O)/c(=C\Nc2ccc(OCCN(C)C)cc2)s/c1=C(/C#N)C(=O)NCC(F)F` showed an IC50 of 74 nM.
`O=C1C(C2=C3C(=Nc4ccccc43)/C(=C\c3ccc(O)cc3)C2=O)=C2C(=Nc3ccccc32)/C1=C\c1ccc(O)cc1` showed an IC50 of 2000 nM.

— ChEMBL document CHEMBL1144187, “Pharmacophore modeling and virtual screening for designing potential PLK1 inhibitors” (Bioorg Med Chem Lett, 2008)
